Assay results from ChEMBL document CHEMBL1147551, “Synthesis and inhibition of Src kinase activity by 7-ethenyl and 7-ethynyl-4-anilino-3-quinolinecarbonitriles” (Bioorg Med Chem Lett, 2004).

Molecular target: Proto-oncogene tyrosine-protein kinase Src (Homo sapiens, UniProt P12931)
Assay: Enzyme inhibitory activity against recombinant human Src protein tyrosine kinase

Proto-oncogene tyrosine-protein kinase Src, sequence (P12931 2-536 limits assumed): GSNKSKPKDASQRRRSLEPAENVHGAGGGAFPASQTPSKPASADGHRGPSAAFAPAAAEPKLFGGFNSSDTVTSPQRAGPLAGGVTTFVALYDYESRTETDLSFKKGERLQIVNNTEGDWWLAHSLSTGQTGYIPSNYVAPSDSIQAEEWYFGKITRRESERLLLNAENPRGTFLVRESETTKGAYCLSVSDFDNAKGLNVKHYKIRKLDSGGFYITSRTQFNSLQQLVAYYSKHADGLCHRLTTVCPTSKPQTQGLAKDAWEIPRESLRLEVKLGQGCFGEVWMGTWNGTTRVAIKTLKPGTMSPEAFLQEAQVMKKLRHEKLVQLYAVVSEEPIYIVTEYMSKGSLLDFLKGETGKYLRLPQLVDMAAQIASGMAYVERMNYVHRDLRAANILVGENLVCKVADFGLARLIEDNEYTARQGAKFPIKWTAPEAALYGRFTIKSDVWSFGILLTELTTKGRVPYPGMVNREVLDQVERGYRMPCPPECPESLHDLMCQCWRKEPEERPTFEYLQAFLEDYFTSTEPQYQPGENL

SMILES	IC50 [µM]
COc1cc(Nc2c(C#N)cnc3cc(/C=C/c4ccccc4)c(OC)cc23)c(Cl)cc1Cl	0.065
COc1cc(Nc2c(C#N)cnc3cc(C#Cc4ccncc4)ccc23)c(Cl)cc1Cl	0.083
COc1cc(Nc2c(C#N)cnc3cc(/C=C/c4ccc(-c5ccccc5)cc4)ccc23)c(Cl)cc1Cl	2.3
COc1cc(Nc2c(C#N)cnc3cc(C#Cc4ccc(-c5ccccc5)cc4)ccc23)c(Cl)cc1Cl	0.42
CCOc1cc(Nc2c(C#N)cnc3cc(/C=C/c4ccncc4)ccc23)c(Cl)cc1Cl	3.1
COc1cc(Nc2c(C#N)cnc3cc(C#Cc4ccccc4)c(OC)cc23)c(Cl)cc1Cl	0.057
COc1cc(Nc2c(C#N)cnc3cc(C#Cc4ccccn4)ccc23)c(Cl)cc1Cl	0.53
COc1cc(Nc2c(C#N)cnc3cc(/C=C/c4cccnc4)ccc23)c(Cl)cc1Cl	0.015
COc1cc(Nc2c(C#N)cnc3cc(/C=C/c4ccccn4)ccc23)c(Cl)cc1Cl	0.019
COc1cc(Nc2c(C#N)cnc3cc(/C=C/c4cccnc4)c(OC)cc23)c(Cl)cc1Cl	0.0084
COc1cc(Nc2c(C#N)cnc3cc(/C=C/c4ccc5ccccc5c4)ccc23)c(Cl)cc1Cl	0.32
COc1cc(Nc2c(C#N)cnc3cc(/C=C/c4ccccc4)ccc23)c(Cl)cc1Cl	0.18
N#Cc1cnc2cc(/C=C/c3ccncc3)ccc2c1Oc1ccc(Cl)cc1Cl	0.38
COc1cc(Nc2c(C#N)cnc3cc(C#Cc4ccccc4)ccc23)c(Cl)cc1Cl	0.32
N#Cc1cnc2cc(/C=C/c3ccncc3)ccc2c1NCc1ccc(Cl)cc1Cl	1
N#Cc1cnc2cc(C#Cc3cccnc3)ccc2c1Nc1ccc(Cl)cc1Cl	0.2
O=C(O)c1cnc2cc(/C=C/c3ccncc3)ccc2c1Nc1ccc(Cl)cc1Cl	1.6
CCOC(=O)c1cnc2cc(/C=C/c3ccncc3)ccc2c1Nc1ccc(Cl)cc1Cl	12
C=Cc1ccc2c(Nc3cc(OC)c(Cl)cc3Cl)c(C#N)cnc2c1	0.097

Species: Rattus norvegicus
Assay: Inhibitory activity against Src-dependent cell proliferation assay, using rat fibroblasts
Assay type: functional

SMILES	Inhibition [%]
COc1cc(Nc2c(C#N)cnc3cc(/C=C/c4ccccn4)ccc23)c(Cl)cc1Cl	50

Species: Rattus norvegicus
Assay: Inhibitory activity against Src-dependent cell proliferation assay using rat fibroblasts

SMILES	IC50 [µM]
COc1cc(Nc2c(C#N)cnc3cc(/C=C/c4ccccc4)c(OC)cc23)c(Cl)cc1Cl	1.5
COc1cc(Nc2c(C#N)cnc3cc(C#Cc4ccncc4)ccc23)c(Cl)cc1Cl	2.7
COc1cc(Nc2c(C#N)cnc3cc(/C=C/c4ccc(-c5ccccc5)cc4)ccc23)c(Cl)cc1Cl	> 10
COc1cc(Nc2c(C#N)cnc3cc(/C=C/c4ccncc4)c(OC)cc23)c(Cl)cc1Cl	0.08
COc1cc(Nc2c(C#N)cnc3cc(C#Cc4ccc(-c5ccccc5)cc4)ccc23)c(Cl)cc1Cl	> 10
N#Cc1cnc2cc(/C=C/c3ccncc3)ccc2c1Nc1ccc(Cl)cc1Cl	1.2
CCOc1cc(Nc2c(C#N)cnc3cc(/C=C/c4ccncc4)ccc23)c(Cl)cc1Cl	> 10
COc1cc(Nc2c(C#N)cnc3cc(C#Cc4ccccc4)c(OC)cc23)c(Cl)cc1Cl	3
COc1cc(Nc2c(C#N)cnc3cc(C#Cc4ccccn4)ccc23)c(Cl)cc1Cl	> 10
COc1cc(Nc2c(C#N)cnc3cc(C#Cc4cccnc4)c(OC)cc23)c(Cl)cc1Cl	0.27
COc1cc(Nc2c(C#N)cnc3cc(/C=C/c4cccnc4)ccc23)c(Cl)cc1Cl	0.23
COc1cc(Nc2c(C#N)cnc3cc(C#Cc4cccnc4)ccc23)c(Cl)cc1Cl	0.65
COc1cc(Nc2c(C#N)cnc3cc(CCc4ccncc4)ccc23)c(Cl)cc1Cl	> 10
COc1cc(Nc2c(C#N)cnc3cc(/C=C/c4cccnc4)c(OC)cc23)c(Cl)cc1Cl	0.14
COc1cc(Nc2c(C#N)cnc3cc(/C=C/c4ccc5ccccc5c4)ccc23)c(Cl)cc1Cl	> 10
COc1cc(Nc2c(C#N)cnc3cc(/C=C/c4ccccc4)ccc23)c(Cl)cc1Cl	2.7
N#Cc1cnc2cc(/C=C/c3ccncc3)ccc2c1Oc1ccc(Cl)cc1Cl	7.2
COc1cc(Nc2c(C#N)cnc3cc(C#Cc4ccccc4)ccc23)c(Cl)cc1Cl	> 10
COc1cc(Nc2c(C#N)cnc3cc(/C=C/c4ccncc4)ccc23)c(Cl)cc1Cl	0.23
N#Cc1cnc2cc(/C=C/c3ccncc3)ccc2c1NCc1ccc(Cl)cc1Cl	> 10
N#Cc1cnc2cc(C#Cc3cccnc3)ccc2c1Nc1ccc(Cl)cc1Cl	3.9
O=C(O)c1cnc2cc(/C=C/c3ccncc3)ccc2c1Nc1ccc(Cl)cc1Cl	> 10
CCOC(=O)c1cnc2cc(/C=C/c3ccncc3)ccc2c1Nc1ccc(Cl)cc1Cl	> 10
C=Cc1ccc2c(Nc3cc(OC)c(Cl)cc3Cl)c(C#N)cnc2c1	9.3
